{"source": "ChEMBL document CHEMBL4715829", "about": "“Heterodimeric Rifampicin-Tobramycin conjugates break intrinsic resistance of Pseudomonas aeruginosa to doxycycline and chloramphenicol in vitro and in a Galleria mellonella in vivo model” (Eur J Med Chem, 2019)", "type_in_all_cases": "functional", "key": {"Pseudomonas aeruginosa [1]": {"system": "Pseudomonas aeruginosa", "experiment": "Antibacterial activity against Pseudomonas aeruginosa 260-97103 assessed as reduction in bacterial growth by measuring doxycycline MIC at 2 ug/ml incubated for 18 hrs in presence of doxycycline by broth microdilution assay (reference value: 16 ug/ml)", "details": "dose 2 µg/ml"}, "Pseudomonas aeruginosa [2]": {"system": "Pseudomonas aeruginosa", "experiment": "Antibacterial activity against Pseudomonas aeruginosa 264-101354 assessed as reduction in bacterial growth by measuring chloramphenicol MIC at 8 ug/ml incubated for 18 hrs in presence of chloramphenicol by broth microdilution assay (reference value: 4096 ug/ml)", "details": "dose 8 µg/ml"}, "Pseudomonas aeruginosa [3]": {"system": "Pseudomonas aeruginosa", "experiment": "Antibacterial activity against Pseudomonas aeruginosa 91433 assessed as fractional inhibitory concentration incubated for 18 hrs in presence of doxycycline by broth microdilution assay"}, "Pseudomonas aeruginosa [4]": {"system": "Pseudomonas aeruginosa", "experiment": "Antibacterial activity against Pseudomonas aeruginosa 101243 assessed as potentiation of doxycycline-induced antibacterial activity by measuring doxycycline MIC at 7.6 uM incubated for 18 hrs in presence of doxycycline by broth microdilution assay (reference value: 4 ug/ml)"}, "Pseudomonas aeruginosa [5]": {"system": "Pseudomonas aeruginosa", "experiment": "Antibacterial activity against Pseudomonas aeruginosa 101885 assessed as potentiation of chloramphenicol-induced antibacterial activity by measuring chloramphenicol MIC at 7.6 uM incubated for 18 hrs in presence of chloramphenicol by broth microdilution assay (reference value: 512 ug/ml)"}, "Pseudomonas aeruginosa [6]": {"system": "Pseudomonas aeruginosa", "experiment": "Antibacterial activity against Pseudomonas aeruginosa 91433 assessed as potentiation of doxycycline-induced antibacterial activity by measuring doxycycline MIC at 7.6 uM incubated for 18 hrs in presence of doxycycline by broth microdilution assay (reference value: 32 ug/ml)"}, "Pseudomonas aeruginosa [7]": {"system": "Pseudomonas aeruginosa", "experiment": "Antibacterial activity against Pseudomonas aeruginosa 114228 assessed as potentiation of chloramphenicol-induced antibacterial activity by measuring chloramphenicol MIC at 7.6 uM incubated for 18 hrs in presence of chloramphenicol by broth microdilution assay (reference value: 64 ug/ml)"}, "Pseudomonas aeruginosa [8]": {"system": "Pseudomonas aeruginosa", "experiment": "Potentiation of doxycycline-induced antibacterial activity against Pseudomonas aeruginosa 262-101856 assessed as fold change in doxycycline MIC at 7.6 uM incubated for 18 hrs in presence of doxycycline by broth microdilution assay relative to control"}, "Pseudomonas aeruginosa [9]": {"system": "Pseudomonas aeruginosa", "experiment": "Potentiation of chloramphenicol-induced antibacterial activity against Pseudomonas aeruginosa 264-101354 assessed as fold change in chloramphenicol MIC at 7.6 uM incubated for 18 hrs in presence of chloramphenicol by broth microdilution assay relative to control"}, "Pseudomonas aeruginosa [10]": {"system": "Pseudomonas aeruginosa", "experiment": "Potentiation of chloramphenicol-induced antibacterial activity against Pseudomonas aeruginosa 259-96918 assessed as fold change in chloramphenicol MIC at 7.6 uM incubated for 18 hrs in presence of chloramphenicol by broth microdilution assay relative to control"}, "Pseudomonas aeruginosa [11]": {"system": "Pseudomonas aeruginosa", "experiment": "Potentiation of chloramphenicol-induced antibacterial activity against Pseudomonas aeruginosa 260-97103 assessed as fold change in chloramphenicol MIC at 7.6 uM incubated for 18 hrs in presence of chloramphenicol by broth microdilution assay relative to control"}, "Pseudomonas aeruginosa [12]": {"system": "Pseudomonas aeruginosa", "experiment": "Potentiation of chloramphenicol-induced antibacterial activity against Pseudomonas aeruginosa 91433 assessed as fold change in chloramphenicol MIC at 7.6 uM incubated for 18 hrs in presence of chloramphenicol by broth microdilution assay relative to control"}, "Pseudomonas aeruginosa [13]": {"system": "Pseudomonas aeruginosa", "experiment": "Potentiation of chloramphenicol-induced antibacterial activity against Pseudomonas aeruginosa 114228 assessed as fold change in chloramphenicol MIC at 7.6 uM incubated for 18 hrs in presence of chloramphenicol by broth microdilution assay relative to control"}, "Pseudomonas aeruginosa [14]": {"system": "Pseudomonas aeruginosa", "experiment": "Antibacterial activity against Pseudomonas aeruginosa 91433 assessed as potentiation of doxycycline-induced antibacterial activity by measuring doxycycline MIC at 9.8 uM incubated for 18 hrs in presence of doxycycline by broth microdilution assay (reference value: 32 ug/ml)"}, "Pseudomonas aeruginosa [15]": {"system": "Pseudomonas aeruginosa", "experiment": "Antibacterial activity against Pseudomonas aeruginosa 101885 assessed as fractional inhibitory concentration incubated for 18 hrs in presence of rifampicin by broth microdilution assay"}, "Pseudomonas aeruginosa [16]": {"system": "Pseudomonas aeruginosa", "experiment": "Antibacterial activity against Pseudomonas aeruginosa 262-101856 assessed as fractional inhibitory concentration incubated for 18 hrs in presence of minocycline by broth microdilution assay"}, "Pseudomonas aeruginosa [17]": {"system": "Pseudomonas aeruginosa", "experiment": "Antibacterial activity against Pseudomonas aeruginosa 264-101354 assessed as fractional inhibitory concentration incubated for 18 hrs in presence of rifampicin by broth microdilution assay"}, "Pseudomonas aeruginosa [18]": {"system": "Pseudomonas aeruginosa", "experiment": "Antibacterial activity against Pseudomonas aeruginosa 114228 assessed as fractional inhibitory concentration incubated for 18 hrs in presence of rifampicin by broth microdilution assay"}, "Pseudomonas aeruginosa [19]": {"system": "Pseudomonas aeruginosa", "experiment": "Antibacterial activity against Pseudomonas aeruginosa 259-96918 assessed as fractional inhibitory concentration index incubated for 18 hrs in presence of minocycline by broth microdilution assay"}, "Pseudomonas aeruginosa [20]": {"system": "Pseudomonas aeruginosa", "experiment": "Antibacterial activity against Pseudomonas aeruginosa 262-101856 assessed as fractional inhibitory concentration index incubated for 18 hrs in presence of tigecycline by broth microdilution assay"}, "Pseudomonas aeruginosa [21]": {"system": "Pseudomonas aeruginosa", "experiment": "Antibacterial activity against Pseudomonas aeruginosa 262-101856 assessed as fractional inhibitory concentration index incubated for 18 hrs in presence of minocycline by broth microdilution assay"}, "Pseudomonas aeruginosa [22]": {"system": "Pseudomonas aeruginosa", "experiment": "Antibacterial activity against Pseudomonas aeruginosa 114228 assessed as fractional inhibitory concentration index incubated for 18 hrs in presence of tigecycline by broth microdilution assay"}, "Pseudomonas aeruginosa [23]": {"system": "Pseudomonas aeruginosa", "experiment": "Potentiation of chloramphenicol-induced antibacterial activity against wild type Pseudomonas aeruginosa PAO1 assessed as fold change in chloramphenicol MIC at <=9.8 uM incubated for 18 hrs in presence of chloramphenicol by broth microdilution assay", "details": "dose microM <=9.8"}, "Pseudomonas aeruginosa [24]": {"system": "Pseudomonas aeruginosa", "experiment": "Potentiation of chloramphenicol-induced antibacterial activity against Pseudomonas aeruginosa PAO200 harboring mexA-mexB-oprM deletion mutant assessed as fold change in chloramphenicol MIC at <=9.8 uM incubated for 18 hrs in presence of chloramphenicol by broth microdilution assay", "details": "dose microM <=9.8"}, "Pseudomonas aeruginosa [25]": {"system": "Pseudomonas aeruginosa", "experiment": "Antibacterial activity against Pseudomonas aeruginosa 260-97103 infected in Galleria mellonella larvae assessed as survival of larvae at 100 mg/kg treated at 3 hrs post-infection in presence of chloramphenicol and measured after 24 hrs relative to control"}, "Pseudomonas aeruginosa [26]": {"system": "Pseudomonas aeruginosa", "experiment": "Potentiation of doxycycline-induced antibacterial activity against Pseudomonas aeruginosa 100036 assessed as fold change in doxycycline MIC at 9.8 uM incubated for 18 hrs in presence of doxycycline by broth microdilution assay relative to control"}, "Pseudomonas aeruginosa [27]": {"system": "Pseudomonas aeruginosa", "experiment": "Potentiation of chloramphenicol-induced antibacterial activity against Pseudomonas aeruginosa 100036 assessed as fold change in chloramphenicol MIC at 9.8 uM incubated for 18 hrs in presence of chloramphenicol by broth microdilution assay relative to control"}, "Pseudomonas aeruginosa [28]": {"system": "Pseudomonas aeruginosa", "experiment": "Potentiation of chloramphenicol-induced antibacterial activity against Pseudomonas aeruginosa 259-96918 assessed as fold change in chloramphenicol MIC at 9.8 uM incubated for 18 hrs in presence of chloramphenicol by broth microdilution assay relative to control"}, "Pseudomonas aeruginosa [29]": {"system": "Pseudomonas aeruginosa", "experiment": "Potentiation of chloramphenicol-induced antibacterial activity against Pseudomonas aeruginosa 260-97103 assessed as fold change in chloramphenicol MIC at 9.8 uM incubated for 18 hrs in presence of chloramphenicol by broth microdilution assay relative to control"}, "Acinetobacter baumannii": {"system": "Acinetobacter baumannii", "experiment": "Potentiation of doxycycline-induced antibacterial activity against Acinetobacter baumannii ATCC 17978 assessed as fold change in doxycycline MIC at 9.8 uM incubated for 18 hrs in presence of doxycycline by broth microdilution assay relative to control"}}}
{"smiles": "CO[C@H]1/C=C/O[C@@]2(C)Oc3c(C)c(O)c4c(O)c(c(/C=N/N5CCN(C)CC5)c(O)c4c3C2=O)NC(=O)/C(C)=C\\C=C\\[C@H](C)[C@H](O)[C@@H](C)[C@@H](O)[C@@H](C)[C@H](OC(C)=O)[C@@H]1C", "note": "[RIFAMPIN]", "values": [{"measurement": "MIC", "setting": "Pseudomonas aeruginosa [1]", "value": 16, "unit": "µg/mL"}]}
{"smiles": "NC[C@H]1O[C@H](O[C@H]2[C@H](O)[C@@H](O[C@H]3O[C@H](CO)[C@@H](O)[C@H](N)[C@H]3O)[C@H](N)C[C@@H]2N)[C@H](N)C[C@@H]1O", "note": "[TOBRAMYCIN]", "values": [{"measurement": "MIC", "setting": "Pseudomonas aeruginosa [2]", "value": 4100, "unit": "µg/mL"}, {"measurement": "FIC", "setting": "Pseudomonas aeruginosa [3]", "value": 0.5}]}
{"smiles": "CO[C@H]1/C=C/O[C@@]2(C)Oc3c(C)c(O)c4c(O)c(c(/C=N/N5CCN(Cc6cn(CCCCCCCCCCCCO[C@@H]7[C@@H](O[C@H]8O[C@H](CO)[C@@H](O)[C@H](N)[C@H]8O)[C@H](N)C[C@H](N)[C@H]7O[C@H]7O[C@H](CN)[C@@H](O)C[C@H]7N)nn6)CC5)c(O)c4c3C2=O)NC(=O)/C(C)=C\\C=C\\[C@H](C)[C@H](O)[C@@H](C)[C@@H](O)[C@@H](C)[C@H](OC(C)=O)[C@@H]1C.O=C(O)C(F)(F)F.O=C(O)C(F)(F)F.O=C(O)C(F)(F)F.O=C(O)C(F)(F)F.O=C(O)C(F)(F)F", "values": [{"measurement": "MIC", "setting": "Pseudomonas aeruginosa [4]", "value": 0.125, "unit": "µg/mL"}, {"measurement": "MIC", "setting": "Pseudomonas aeruginosa [5]", "value": 4, "unit": "µg/mL"}, {"measurement": "MIC", "setting": "Pseudomonas aeruginosa [6]", "value": 0.25, "unit": "µg/mL"}, {"measurement": "MIC", "setting": "Pseudomonas aeruginosa [7]", "value": 8, "unit": "µg/mL"}, {"measurement": "fold change (FC)", "setting": "Pseudomonas aeruginosa [8]", "value": 4}, {"measurement": "fold change (FC)", "setting": "Pseudomonas aeruginosa [9]", "value": 4}, {"measurement": "fold change (FC)", "setting": "Pseudomonas aeruginosa [10]", "value": 4}, {"measurement": "fold change (FC)", "setting": "Pseudomonas aeruginosa [11]", "value": 4}, {"measurement": "fold change (FC)", "setting": "Pseudomonas aeruginosa [12]", "value": 4}, {"measurement": "fold change (FC)", "setting": "Pseudomonas aeruginosa [13]", "value": 4}]}
{"smiles": "CO[C@H]1/C=C/O[C@@]2(C)Oc3c(C)c(O)c4c(O)c(c(/C=N/N5CCN(Cc6cn(CCCCCCO[C@@H]7[C@@H](O[C@H]8O[C@H](CO)[C@@H](O)[C@H](N)[C@H]8O)[C@H](N)C[C@H](N)[C@H]7O[C@H]7O[C@H](CN)[C@@H](O)C[C@H]7N)nn6)CC5)c(O)c4c3C2=O)NC(=O)/C(C)=C\\C=C\\[C@H](C)[C@H](O)[C@@H](C)[C@@H](O)[C@@H](C)[C@H](OC(C)=O)[C@@H]1C.Cl.Cl.Cl.Cl.Cl", "values": [{"measurement": "MIC", "setting": "Pseudomonas aeruginosa [14]", "value": 4, "unit": "µg/mL"}, {"measurement": "FIC", "setting": "Pseudomonas aeruginosa [15]", "value": 0.063}, {"measurement": "FIC", "setting": "Pseudomonas aeruginosa [16]", "value": "<0.063"}, {"measurement": "FIC", "setting": "Pseudomonas aeruginosa [17]", "value": 0.016}, {"measurement": "FIC", "setting": "Pseudomonas aeruginosa [18]", "value": "<0.031"}, {"measurement": "fractional inhibitory concentration index (FICI)", "setting": "Pseudomonas aeruginosa [19]", "value": "<0.16"}, {"measurement": "fractional inhibitory concentration index (FICI)", "setting": "Pseudomonas aeruginosa [20]", "value": "<0.19"}, {"measurement": "fractional inhibitory concentration index (FICI)", "setting": "Pseudomonas aeruginosa [21]", "value": "<0.09"}, {"measurement": "fractional inhibitory concentration index (FICI)", "setting": "Pseudomonas aeruginosa [22]", "value": "<0.53"}, {"measurement": "fold change (FC)", "setting": "Pseudomonas aeruginosa [23]", "value": 32}, {"measurement": "fold change (FC)", "setting": "Pseudomonas aeruginosa [24]", "value": 16}, {"measurement": "survival at 100 mg/kg", "setting": "Pseudomonas aeruginosa [25]", "value": 45, "unit": "%"}, {"measurement": "fold change (FC)", "setting": "Pseudomonas aeruginosa [26]", "value": 4}, {"measurement": "fold change (FC)", "setting": "Pseudomonas aeruginosa [27]", "value": 4}, {"measurement": "fold change (FC)", "setting": "Pseudomonas aeruginosa [28]", "value": 4}, {"measurement": "fold change (FC)", "setting": "Pseudomonas aeruginosa [29]", "value": 4}, {"measurement": "fold change (FC)", "setting": "Acinetobacter baumannii", "value": 0}]}
